Experimental data from patent US6066633A, “Metalloproteinase inhibitors” (Adir et Compagnie, priority 1997, dated 2000).
Structures can show the parent of a compound that is named as a salt.

Experiments:
ovarian cancers = conditions: Becket et al., DDT 1996, 1 (1), 16; cited from earlier work
[1] = tested on: neovascularisation (pseudo-vessels) from portions of thoracic aorta; assay: In Vitro Angiogenesis (thoracic aorta portions in type I collagen gel); assay type: cell-based, male Fischer 344 rats; conditions: Rattus norvegicus, 120 h, five days of culture in a medium without serum, vascular density
Description: Portions of thoracic aorta of male Fischer 344 rats aged from 8 to 12 weeks are immersed in a type I collagen gel according to the method of Nicosia et Ottinetti (1990). After five days of culture in a medium without serum, the preparations are examined using a microscope and the formation of pseudo-vessels is quantified in terms of vascular density after digitisation and image analysis.

[2] = target: T1, MMP-1 (interstitial collagenase) (Homo sapiens, UniProt P03956); assay: Enzymatic Inhibition of Metalloproteinases (MMP-1); assay type: biochemical; conditions: 20 μM substrate, pH 7.7, 37° C., six hours; read-out: IC50 for the enzyme MMP-1
T1 sequence (P03956 100-469): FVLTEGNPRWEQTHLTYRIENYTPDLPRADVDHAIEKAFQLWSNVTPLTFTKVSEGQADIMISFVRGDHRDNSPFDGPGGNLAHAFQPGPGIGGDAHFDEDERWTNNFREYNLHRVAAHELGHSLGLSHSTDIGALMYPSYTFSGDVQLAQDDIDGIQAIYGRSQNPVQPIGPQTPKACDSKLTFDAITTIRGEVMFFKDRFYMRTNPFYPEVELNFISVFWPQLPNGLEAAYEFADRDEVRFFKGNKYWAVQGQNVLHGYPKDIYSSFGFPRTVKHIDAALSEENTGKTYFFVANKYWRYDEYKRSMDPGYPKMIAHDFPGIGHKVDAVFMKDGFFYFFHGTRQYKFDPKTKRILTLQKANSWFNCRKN
Procedure: (§1) Enzymatic Inhibition of Metalloproteinases
(§2) Four recombinant human enzymes MMP-1 (interstitial collagenase), MMP-2 (72 kDa gelatinase A), MMP-3 (stromelysin 1) and MMP-9 (92 kDa gelatinase B) are activated with APMA (4-aminophenylmercuric acetate).
(§3) The enzymatic tests are carried out using a peptido-mimetic substrate:
(§4) DnpProChaGlyCys(Me)HisAlaLys(Nma)NH2,
(§5) which is cleaved between the glycine and the cysteine to yield a fluorescent derivative (Anal. Biochem., 212, 58-64, 1993).
(§6) The reactions, carried out in a buffer of 50 mM Tris, 200 mM NaCl, 5 mM CaCl2, 0.1% Brij 35 at pH 7.7, are initiated using 20 μM substrate in a total volume of 100 μl at 37° C. The fluorescence obtained after six hours is read in a 96-well plate in a fluorimeter equipped with a combination of 340 nm and 400 nm filters for excitation and emission.

[3] = target: T2, MMP-2 (72 kDa gelatinase A) (Homo sapiens, UniProt P08253); assay: Enzymatic Inhibition of Metalloproteinases (MMP-2); assay type: biochemical; conditions: 20 μM substrate, pH 7.7, 37° C., six hours; read-out: IC50 for the enzyme MMP-2
T2 sequence (P08253 110-660): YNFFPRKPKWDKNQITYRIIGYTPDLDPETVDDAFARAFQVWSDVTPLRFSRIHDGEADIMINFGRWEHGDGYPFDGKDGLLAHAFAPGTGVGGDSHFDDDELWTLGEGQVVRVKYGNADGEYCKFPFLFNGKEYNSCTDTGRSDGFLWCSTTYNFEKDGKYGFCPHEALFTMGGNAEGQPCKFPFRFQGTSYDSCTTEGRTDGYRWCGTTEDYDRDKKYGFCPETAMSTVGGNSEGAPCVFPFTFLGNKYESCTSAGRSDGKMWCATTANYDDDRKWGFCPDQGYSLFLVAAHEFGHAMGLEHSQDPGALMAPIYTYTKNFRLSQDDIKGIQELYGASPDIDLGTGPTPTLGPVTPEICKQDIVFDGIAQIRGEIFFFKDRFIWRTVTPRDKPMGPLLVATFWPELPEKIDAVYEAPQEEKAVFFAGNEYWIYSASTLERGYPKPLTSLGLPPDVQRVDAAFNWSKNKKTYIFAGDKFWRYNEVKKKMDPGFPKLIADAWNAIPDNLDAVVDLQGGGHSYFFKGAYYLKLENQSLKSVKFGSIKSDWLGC
Procedure: as §1, §2, §3, §4, §5, §6

MMP-3 (stromelysin 1) = MMP-3 (stromelysin 1) (Homo sapiens, UniProt P08254); assay: Enzymatic Inhibition of Metalloproteinases (MMP-3); assay type: biochemical; conditions: 20 μM substrate, pH 7.7, 37° C., six hours; read-out: IC50 for the enzyme MMP-3
Chain of MMP-3 (stromelysin 1) (P08254 100-477): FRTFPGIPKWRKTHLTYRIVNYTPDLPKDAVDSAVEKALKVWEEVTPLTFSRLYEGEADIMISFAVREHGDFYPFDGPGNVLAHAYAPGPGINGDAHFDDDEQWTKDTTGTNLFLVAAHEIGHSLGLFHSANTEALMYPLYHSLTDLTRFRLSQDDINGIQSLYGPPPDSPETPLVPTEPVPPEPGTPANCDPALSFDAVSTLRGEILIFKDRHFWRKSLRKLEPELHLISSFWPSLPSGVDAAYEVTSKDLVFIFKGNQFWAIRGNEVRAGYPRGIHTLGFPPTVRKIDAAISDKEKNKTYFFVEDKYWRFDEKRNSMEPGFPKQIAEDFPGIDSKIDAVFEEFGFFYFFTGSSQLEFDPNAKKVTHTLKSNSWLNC
Procedure: as §1, §2, §3, §4, §5, §6

[4] = target: MMP-9 (92 kDa gelatinase B) (Homo sapiens, UniProt P14780); assay: Enzymatic Inhibition of Metalloproteinases (MMP-9); assay type: biochemical; conditions: 20 μM substrate, pH 7.7, 37° C., six hours; read-out: IC50 for the enzyme MMP-9
Chain of MMP-9 (92 kDa gelatinase B) (P14780 107-707 limits assumed): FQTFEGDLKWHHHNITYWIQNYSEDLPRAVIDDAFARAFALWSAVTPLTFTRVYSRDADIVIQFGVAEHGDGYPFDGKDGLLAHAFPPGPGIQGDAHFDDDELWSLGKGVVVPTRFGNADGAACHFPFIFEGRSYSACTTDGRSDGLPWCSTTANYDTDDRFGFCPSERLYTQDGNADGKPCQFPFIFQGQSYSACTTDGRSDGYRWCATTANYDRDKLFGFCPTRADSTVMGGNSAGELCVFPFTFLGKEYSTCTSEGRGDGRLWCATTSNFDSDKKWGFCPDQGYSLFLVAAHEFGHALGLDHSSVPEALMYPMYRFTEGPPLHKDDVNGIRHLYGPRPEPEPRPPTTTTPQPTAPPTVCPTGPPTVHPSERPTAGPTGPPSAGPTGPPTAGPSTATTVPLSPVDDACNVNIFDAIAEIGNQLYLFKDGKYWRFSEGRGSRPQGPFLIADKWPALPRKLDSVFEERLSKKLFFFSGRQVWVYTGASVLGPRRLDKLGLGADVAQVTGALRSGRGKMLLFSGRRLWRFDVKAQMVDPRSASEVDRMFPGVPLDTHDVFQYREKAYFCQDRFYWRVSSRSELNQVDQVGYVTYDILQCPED
Procedure: as §1, §2, §3, §4, §5, §6

In the case of `CNC(=O)C(Cc1ccccc1)NC(=O)C(CC(C)C)C(CSc1cccs1)C(=O)NO` (centres unmarked) [BB94], the “anti-tumour activity in clinical use” value (ovarian cancers) is given as “active in ovarian cancers”.

`COc1ccc(S(=O)(=O)N2Cc3c(c4ccccc4n3CC(=O)N(C)CCN3CCOCC3)C[C@@H]2C(=O)NO)cc1` [Example 15, 2-[(4-Methoxyphenyl)sulphonyl]-9-[N-methyl-(2-morpholin-4-ylethylcarbamoyl)methyl]-2,3,4,9-tetrahydro-1H-β-carboline-(3R)-(N-hydroxy)carboxamide Hydrochloride] showed an inhibition at 1 µM [1] of 50 to 100%.

In the case of `COc1ccc(S(=O)(=O)N2Cc3c(c4ccccc4n3CC(=O)NCCSCCCN3CCOCC3)C[C@@H]2C(=O)NO)cc1` [Example 13, 2-[(4-Methoxyphenyl)sulphonyl]-9-{[2-(3-morpholin-4-ylpropylsulphanyl)ethylcarbamoyl]methyl}-2,3,4,9-tetrahydro-1H-β-carboline-(3R)-(N-hydroxy)carboxamide Hydrochloride], the inhibition at 1 µM [1] is reported as 50 to 100%.

For `COc1ccc(S(=O)(=O)N2Cc3c(c4ccccc4n3CC(=O)NCCN3CCOCC3)C[C@@H]2C(=O)NO)cc1` [Example 2, 2-[(4-Methoxyphenyl)sulphonyl]-9-[(2-morpholin-4-ylethylcarbamoyl)methyl]-2,3,4,9-tetrahydro-1H-β-carboline-(3R)-(N-hydroxy)carboxamide Acetate], the IC50 [2] was 32.6 nM and the inhibition at 1 µM [1] was 50 to 100%.

`COc1ccc(S(=O)(=O)N2Cc3c(c4ccccc4n3CC(=O)NCCSCCN3CCOCC3)C[C@@H]2C(=O)NO)cc1` [Example 11, 2-[(4-Methoxyphenyl)sulphonyl]-9-{[2-(2-morpholin-4-ylethylsulphanyl)ethylcarbamoyl]methyl}-2,3,4,9-tetrahydro-1H-β-carboline-(3R)-(N-hydroxy)carboxamide Hydrochloride] gave an IC50 [3] of 1.6 nM, an IC50 (MMP-3 (stromelysin 1)) of 3.1 nM and an IC50 [4] of 0.1 nM.
